From patent publication US8969516B2, “Method of hydrolysis of peptide bond” (priority 2006, dated 2015)

Assay: MALDI-TOF screening of Ni^2+ dependent hydrolysis in a combinatorial peptide library
Assay type: physicochemical
Details: CH3CO-Gly-Ala-Thr-X-His-Z-Lys-Phe-Leu-NH2 library, Ni^2+ 2 mM, pH 8.2, 10 mM Tris, score=24/tm
Outline: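 Sublibraries of Ac-Gly-Ala-Ser/Thr-X-His-Z-Lys-Phe-Leu-NH2, randomized at Z and fixed at X, were hydrolyzed at 1 mM total peptide with 2 mM Ni2+ in 10 mM Tris, pH 8.2, at 37 °C or 45 °C. Cleavage was scored visually in MALDI-TOF spectra at 2, 4, 6 and 8 h.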

Row | Substance | hydrolysis score from MALDI-TOF screening (37° C.) | hydrolysis score from MALDI-TOF screening (45° C.)
1 | Ac-GATAHSKFL-NH2 [TAHS] | 0 (a score of 0 if no trace of the product of hydrolysis was seen after 8 hours of incubation) | 0 (a score of 0 if no trace of the product of hydrolysis was seen after 8 hours of incubation)
2 | Ac-GATAHTKFL-NH2 [TAHT] | 0 (a score of 0 if no trace of the product of hydrolysis was seen after 8 hours of incubation) | 0 (a score of 0 if no trace of the product of hydrolysis was seen after 8 hours of incubation)
3 | Ac-GATAHVKFL-NH2 [TAHV] | 0 (a score of 0 if no trace of the product of hydrolysis was seen after 8 hours of incubation) | 0 (a score of 0 if no trace of the product of hydrolysis was seen after 8 hours of incubation)
4 | Ac-GATAHYKFL-NH2 [TAHY] | 0 (a score of 0 if no trace of the product of hydrolysis was seen after 8 hours of incubation) | 0 (a score of 0 if no trace of the product of hydrolysis was seen after 8 hours of incubation)
5 | Ac-GATFHAKFL-NH2 [TFHA] | 0 (a score of 0 if no trace of the product of hydrolysis was seen after 8 hours of incubation) | 0 (a score of 0 if no trace of the product of hydrolysis was seen after 8 hours of incubation)
6 | Ac-GATFHDKFL-NH2 [TFHD] | 0 (a score of 0 if no trace of the product of hydrolysis was seen after 8 hours of incubation) | 0 (a score of 0 if no trace of the product of hydrolysis was seen after 8 hours of incubation)
7 | Ac-GATFHEKFL-NH2 [TFHE] | 0 (a score of 0 if no trace of the product of hydrolysis was seen after 8 hours of incubation) | 0 (a score of 0 if no trace of the product of hydrolysis was seen after 8 hours of incubation)
8 | Ac-GATFHFKFL-NH2 [TFHF] | 0 (a score of 0 if no trace of the product of hydrolysis was seen after 8 hours of incubation) | 0 (a score of 0 if no trace of the product of hydrolysis was seen after 8 hours of incubation)
9 | Ac-GATFHGKFL-NH2 [TFHG] | 0 (a score of 0 if no trace of the product of hydrolysis was seen after 8 hours of incubation) | 0 (a score of 0 if no trace of the product of hydrolysis was seen after 8 hours of incubation)
10 | Ac-GATFHHKFL-NH2 [TFHH] | 0 (a score of 0 if no trace of the product of hydrolysis was seen after 8 hours of incubation) | 0 (a score of 0 if no trace of the product of hydrolysis was seen after 8 hours of incubation)
11 | Ac-GATFHKKFL-NH2 [TFHK] | 3 (a score of 3 for detection at 8 hours) | 3 (a score of 3 for detection at 8 hours)
12 | Ac-GATFHLKFL-NH2 [TFHL] | 0 (a score of 0 if no trace of the product of hydrolysis was seen after 8 hours of incubation) | 0 (a score of 0 if no trace of the product of hydrolysis was seen after 8 hours of incubation)
13 | Ac-GATFHMKFL-NH2 [TFHM] | 0 (a score of 0 if no trace of the product of hydrolysis was seen after 8 hours of incubation) | 0 (a score of 0 if no trace of the product of hydrolysis was seen after 8 hours of incubation)
14 | Ac-GATFHNKFL-NH2 [TFHN] | 0 (a score of 0 if no trace of the product of hydrolysis was seen after 8 hours of incubation) | 0 (a score of 0 if no trace of the product of hydrolysis was seen after 8 hours of incubation)
15 | Ac-GATFHPKFL-NH2 [TFHP] | 0 (a score of 0 if no trace of the product of hydrolysis was seen after 8 hours of incubation) | 0 (a score of 0 if no trace of the product of hydrolysis was seen after 8 hours of incubation)
16 | Ac-GATFHQKFL-NH2 [TFHQ] | 0 (a score of 0 if no trace of the product of hydrolysis was seen after 8 hours of incubation) | 0 (a score of 0 if no trace of the product of hydrolysis was seen after 8 hours of incubation)
17 | Ac-GATFHRKFL-NH2 [TFHR] | 3 (a score of 3 for detection at 8 hours) | 4 (a score of 4 for detection at 6 hours)

Row | Substance | hydrolysis score from MALDI-TOF screening (37° C.) | hydrolysis score from MALDI-TOF screening (45° C.)
18 | Ac-GATFHSKFL-NH2 [TFHS] | 0 (a score of 0 if no trace of the product of hydrolysis was seen after 8 hours of incubation) | 0 (a score of 0 if no trace of the product of hydrolysis was seen after 8 hours of incubation)
19 | Ac-GATFHTKFL-NH2 [TFHT] | 0 (a score of 0 if no trace of the product of hydrolysis was seen after 8 hours of incubation) | 0 (a score of 0 if no trace of the product of hydrolysis was seen after 8 hours of incubation)
20 | Ac-GATFHVKFL-NH2 [TFHV] | 0 (a score of 0 if no trace of the product of hydrolysis was seen after 8 hours of incubation) | 0 (a score of 0 if no trace of the product of hydrolysis was seen after 8 hours of incubation)
21 | Ac-GATFHYKFL-NH2 [TFHY] | 0 (a score of 0 if no trace of the product of hydrolysis was seen after 8 hours of incubation) | 0 (a score of 0 if no trace of the product of hydrolysis was seen after 8 hours of incubation)
22 | Ac-GATGHAKFL-NH2 [TGHA] | 0 (a score of 0 if no trace of the product of hydrolysis was seen after 8 hours of incubation) | 0 (a score of 0 if no trace of the product of hydrolysis was seen after 8 hours of incubation)
23 | Ac-GATGHDKFL-NH2 [TGHD] | 0 (a score of 0 if no trace of the product of hydrolysis was seen after 8 hours of incubation) | 0 (a score of 0 if no trace of the product of hydrolysis was seen after 8 hours of incubation)
24 | Ac-GATGHEKFL-NH2 [TGHE] | 0 (a score of 0 if no trace of the product of hydrolysis was seen after 8 hours of incubation) | 0 (a score of 0 if no trace of the product of hydrolysis was seen after 8 hours of incubation)
25 | Ac-GATGHGKFL-NH2 [TGHG] | 0 (a score of 0 if no trace of the product of hydrolysis was seen after 8 hours of incubation) | 0 (a score of 0 if no trace of the product of hydrolysis was seen after 8 hours of incubation)
26 | Ac-GATGHHKFL-NH2 [TGHH] | 0 (a score of 0 if no trace of the product of hydrolysis was seen after 8 hours of incubation) | 0 (a score of 0 if no trace of the product of hydrolysis was seen after 8 hours of incubation)
27 | Ac-GATGHIKFL-NH2 [TGHI] | 0 (a score of 0 if no trace of the product of hydrolysis was seen after 8 hours of incubation) | 0 (a score of 0 if no trace of the product of hydrolysis was seen after 8 hours of incubation)
28 | Ac-GATGHKKFL-NH2 [TGHK] | 0 (a score of 0 if no trace of the product of hydrolysis was seen after 8 hours of incubation) | 0 (a score of 0 if no trace of the product of hydrolysis was seen after 8 hours of incubation)
29 | Ac-GATGHLKFL-NH2 [TGHL] | 0 (a score of 0 if no trace of the product of hydrolysis was seen after 8 hours of incubation) | 0 (a score of 0 if no trace of the product of hydrolysis was seen after 8 hours of incubation)
30 | Ac-GATGHMKFL-NH2 [TGHM] | 0 (a score of 0 if no trace of the product of hydrolysis was seen after 8 hours of incubation) | 0 (a score of 0 if no trace of the product of hydrolysis was seen after 8 hours of incubation)
31 | Ac-GATGHNKFL-NH2 [TGHN] | 0 (a score of 0 if no trace of the product of hydrolysis was seen after 8 hours of incubation) | 0 (a score of 0 if no trace of the product of hydrolysis was seen after 8 hours of incubation)
32 | Ac-GATGHPKFL-NH2 [TGHP] | 0 (a score of 0 if no trace of the product of hydrolysis was seen after 8 hours of incubation) | 0 (a score of 0 if no trace of the product of hydrolysis was seen after 8 hours of incubation)
33 | Ac-GATGHQKFL-NH2 [TGHQ] | 0 (a score of 0 if no trace of the product of hydrolysis was seen after 8 hours of incubation) | 0 (a score of 0 if no trace of the product of hydrolysis was seen after 8 hours of incubation)
